Read-outs that look alike come from different tables or passages of the source.
Key:
Type in all cases: cell-based
[1] = test system: T47D cells expressing mutant PI3Ka (H1047R); experiment: In vitro cell proliferation, T47D cells (CellTiter-Glo); conditions: inhibition of proliferation, read-out: Avg T-47D EC50
Procedure, shortened: (§1)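 T47D cells in RPMI/10% FBS/insulin (0.2 units/mL) or SKBR3 in McCoys 5a/10% FBS, 1,500 cells/well, grown 72 h at 37 °C with 10-point compound dilutions. CellTiter-Glo luminescence; % inhibition normalised to 0.1% DMSO and 10 uM Alpelisib, EC50 from four-parameter curve fit.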

[2] = test system: SKBR3 cells express WT PI3Ka; experiment: In vitro cell proliferation, SKBR3 cells (CellTiter-Glo); conditions: inhibition of proliferation
Procedure, shortened: as §1

[3] = test system: phosphorylation of AKT (pAKT) in T47D cells expressing mutant PI3Ka (H1047R); experiment: In vitro cell pAKT (Ser473) HTRF, T47D cells; conditions: cellular pAKT, T47D cells, mutant PI3Ka (H1047R), 6 hours, read-out: Avg T-47D IC50
Procedure, shortened: (§2)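 T47D cells (RPMI, 10% FBS, 0.2 units/mL insulin) or SKBR3 cells (McCoy's 5a, 10% FBS) were seeded onto 10-point compound dilutions and incubated 6 h at 37 °C. After lysis, pAKT was detected overnight by HTRF (Eu cryptate/d2). IC50 was fitted from % inhibition relative to 0.1% DMSO and 10 uM alpelisib controls.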

[4] = test system: phosphorylation of AKT (pAKT) in SKBR3 cells express WT PI3Ka; experiment: In vitro cell pAKT (Ser473) HTRF, SKBR3 cells; conditions: cellular pAKT
Procedure, shortened: as §2

| EC50 ([1]; 72 hours) | EC50 ([2]; 72 hours) | IC50 [3] | IC50 ([4]; 6 hours) | EC50 ([1]; Homo sapiens, T47D, 72 h) | EC50 ([2]; Homo sapiens, SK-BR-3, 72 h) | IC50 ([3]; Homo sapiens, T47D, 6 h) | IC50 ([4]; Homo sapiens, SK-BR-3, 6 h) | Compound |
| --- | --- | --- | --- | --- | --- | --- | --- | --- |
| 500 to 2000 nM | > 15000 nM | 1 to 500 nM | > 15000 nM | – | – | – | – | Cc1cc([C@@H](C)Nc2ccccc2C(=O)O)c2cc(N3CC4(CCCN(CC(F)(F)F)C4)C3)n(C)c(=O)c2c1 [Example 195] |
| 1 to 500 nM | > 15000 nM | 1 to 500 nM | 2000 to 15000 nM | – | – | – | – | Cc1cc([C@@H](C)Nc2ccccc2C(=O)O)c2cc(N3CCN(c4cccc(C)n4)CC3)n(C)c(=O)c2c1 [Example 196] |
| – | – | – | – | 1 to 500 nM | > 15000 nM | 1 to 500 nM | 2000 to 15000 nM | Cc1cc([C@@H](C)Nc2ccccc2C(=O)O)c2cc(N3CCN(c4ccccc4C#N)CC3)n(C)c(=O)c2c1 [Example 197] |
| – | – | – | – | 500 to 2000 nM | > 15000 nM | 500 to 2000 nM | > 15000 nM | Cc1cc([C@@H](C)Nc2ccccc2C(=O)O)c2cc(N3CCN(c4ncnn4C)CC3)n(C)c(=O)c2c1 [Example 198] |
| – | – | – | – | 1 to 500 nM | 2000 to 15000 nM | 1 to 500 nM | 2000 to 15000 nM | Cc1cc([C@@H](C)Nc2ccccc2C(=O)O)c2cc(N3CCN(c4ncccc4C#N)CC3)n(C)c(=O)c2c1 [Example 199] |
| – | – | – | – | 500 to 2000 nM | > 15000 nM | 500 to 2000 nM | > 15000 nM | Cc1cc([C@@H](C)Nc2ccccc2C(=O)O)c2cc(N3CCN(Cc4cnn(C)c4)CC3)n(C)c(=O)c2c1 [Example 200] |
| – | – | – | – | 1 to 500 nM | > 15000 nM | 1 to 500 nM | > 15000 nM | Cc1cc([C@@H](C)Nc2ccccc2C(=O)O)c2cc(-c3ccc(OCC(F)F)nc3)n(C)c(=O)c2c1 [Example 201] |
| 1 to 500 nM | > 15000 nM | 1 to 500 nM | > 15000 nM | – | – | – | – | Cc1cc([C@@H](C)Nc2ccccc2C(=O)O)c2cc(-c3ccc(O[C@H]4C[C@@H](F)C4)nc3)n(C)c(=O)c2c1 [Example 202] |
| – | – | – | – | 1 to 500 nM | > 15000 nM | 1 to 500 nM | > 15000 nM | Cc1cc([C@@H](C)Nc2ccccc2C(=O)O)c2cc(N3CCN(C(=O)OC4CC4)CC3)n(C)c(=O)c2c1 [Example 203] |
| – | – | – | – | 1 to 500 nM | 2000 to 15000 nM | 1 to 500 nM | 500 to 2000 nM | Cc1cc([C@@H](C)Nc2ccccc2C(=O)O)c2cc(N3CCN(c4cccnc4C)CC3)n(C)c(=O)c2c1 [Example 206] |
| – | – | – | – | 1 to 500 nM | > 15000 nM | 1 to 500 nM | > 15000 nM | Cc1cc([C@@H](C)Nc2ccccc2C(=O)O)c2cc(-c3ccc(OCC4CC4)nc3)n(C)c(=O)c2c1 [Example 208] |
| – | – | – | – | 500 to 2000 nM | > 15000 nM | 1 to 500 nM | > 15000 nM | Cc1cc([C@@H](C)Nc2ccccc2C(=O)O)c2cc(-c3ccc(C)nc3C)n(C)c(=O)c2c1 [Example 209] |
| – | – | – | – | 500 to 2000 nM | > 15000 nM | 1 to 500 nM | > 15000 nM | Cc1cc([C@@H](C)Nc2ccccc2C(=O)O)c2cc(-c3cnc(C)c(C)c3)n(C)c(=O)c2c1 [Example 210] |
| – | – | – | – | 500 to 2000 nM | > 15000 nM | 500 to 2000 nM | > 15000 nM | Cc1cc([C@@H](C)Nc2ccccc2C(=O)O)c2cc(-c3cnn(C4CC4)c3)n(C)c(=O)c2c1 [Example 212] |
| – | – | – | – | 1 to 500 nM | > 15000 nM | 1 to 500 nM | > 15000 nM | Cc1cc([C@@H](C)Nc2ccccc2C(=O)O)c2cc(N3CCN(Cc4ccnc(C)n4)CC3)n(C)c(=O)c2c1 [Example 214] |
| – | – | – | – | 1 to 500 nM | > 15000 nM | 1 to 500 nM | > 15000 nM | Cc1cc([C@@H](C)Nc2ccccc2C(=O)O)c2cc(-c3ccc(OC4CC4)nc3)n(C)c(=O)c2c1 [Example 216] |
| 1 to 500 nM | 2000 to 15000 nM | 1 to 500 nM | > 15000 nM | – | – | – | – | Cc1cc(C(C)Nc2ccccc2C(=O)O)c2cc(-c3ccc(OC4CC(F)C4)nc3)n(C)c(=O)c2c1 (centres unmarked) [Example 217] |
| – | – | – | – | 1 to 500 nM | 2000 to 15000 nM | 1 to 500 nM | 2000 to 15000 nM | COc1ccc(N2CCN(c3cc4c([C@@H](C)Nc5ccccc5C(=O)O)cc(C)cc4c(=O)n3C)CC2)cn1 [Example 218] |
| 1 to 500 nM | 2000 to 15000 nM | 1 to 500 nM | 2000 to 15000 nM | – | – | – | – | Cc1cc([C@@H](C)Nc2ccccc2C(=O)O)c2cc(N3CCC4(CC3)CN(CC(F)(F)F)C4)n(C)c(=O)c2c1 [Example 219] |

| Compound | EC50 ([1]; 72 hours) | EC50 ([2]; 72 hours) | IC50 [3] | IC50 ([4]; 6 hours) | EC50 ([1]; Homo sapiens, T47D, 72 h) | EC50 ([2]; Homo sapiens, SK-BR-3, 72 h) | IC50 ([3]; Homo sapiens, T47D, 6 h) | IC50 ([4]; Homo sapiens, SK-BR-3, 6 h) |
| --- | --- | --- | --- | --- | --- | --- | --- | --- |
| Cc1cc([C@@H](C)Nc2ccccc2C(=O)O)c2cc(N3CC4CC(C3)N4CC(F)(F)F)n(C)c(=O)c2c1 [Example 207] | – | – | – | – | 1 to 500 nM | > 15000 nM | 1 to 500 nM | > 15000 nM |

— patent publication US20260078103A1, “ISOQUINOLONES AS PI3K INHIBITORS” (OnKure, Inc., priority 2022, published 2026)
